The text below walks through data of patent US20230075007A1 (IMPACT NATURALS, INC., priority 2021, published 2023).

Molecules are shown by their SMILES.

The conditions of series [1]: cited from earlier work.
The target of another series is CB2 (Homo sapiens, UniProt P34972). The conditions noted are these: WHO assessment; cited from earlier work.
Series [2] can be described thus: Dispersion in simulated gastric and intestinal fluids. Type of series: physicochemical. On the procedure: Dispersion of the formulations in simulated gastric and intestinal fluids is evaluated over a 12 hour period.

Chain of CB2 (P34972 whole entry, species assumed): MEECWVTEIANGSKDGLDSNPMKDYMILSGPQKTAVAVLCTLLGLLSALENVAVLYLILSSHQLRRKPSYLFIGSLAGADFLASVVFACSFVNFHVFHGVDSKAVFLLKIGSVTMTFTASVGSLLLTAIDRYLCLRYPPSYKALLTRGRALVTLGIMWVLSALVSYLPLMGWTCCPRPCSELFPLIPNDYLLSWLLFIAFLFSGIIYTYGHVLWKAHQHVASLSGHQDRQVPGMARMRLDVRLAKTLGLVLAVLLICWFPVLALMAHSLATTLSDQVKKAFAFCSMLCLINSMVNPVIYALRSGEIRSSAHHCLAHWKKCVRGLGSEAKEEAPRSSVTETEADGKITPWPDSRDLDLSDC

On to `C=C(C)[C@@H]1CCC(C)=C[C@H]1c1c(O)cc(CCCCC)cc1O` [Cannabidiol], for which the aqueous solubility entry in series [1] is on record as “approximately 0.013 milligrams per milliliter”. For the same molecule, the “affinity to CB2” value on CB2 is “low affinity”. In addition, the dispersion result in series [2] (FaSSGF, pH 1.2, 12 hour period) is on record as “no dispersion”; in series [2] (FaSSIF, pH 6.5, 12 hour period), “about 20%”; in series [2] (FeSSIF, pH 5.5, 12 hour period) it was “about 20%”. In addition, the “dispersion pattern in the biorelevant media” value in series [2] (FaSSIF, FeSSIF and FaSSGF overall) is listed as “poor dispersion”.
